Laboratory results from patent US10702487B2, “Pharmaceutical composition for prevention of diet induced obesity” (FRIMLINE PRIVATE LIMITED, priority 2017, dated 2020).

Key:
Type in all cases: in vivo, Male Wistar Rats
[1] = test system: High fat diet induced obesity model in rat; assay: High fat diet induced obesity model in rat: body weight; settings: HFD-fed rats, end of 12 weeks, p.o., mean; for % increase in body weight: in comparison to normal control group; for Body weight: OEA 41, L-Valine 2, Pantethine 31, Orlistat 10 mg/kg
Protocol: (§1) Screening anti-obesity effect of synergistic combination or composition/formulation comprising OEA and other natural ingredients using High fat diet induced obesity model in rat. […] To maintain appropriate conditions, temperature and relative humidity were recorded three times daily. During complete experiment, animals were supplied with the standard certified rat pellet feed (manufactured by VRK Nutritional Solutions, Pune) and drinking water treated by the reverse osmosis ad libitum. […] In order to evaluate the anti-obesity effect, forty-eight (48) male rats were screened and divided into eight groups. For a comparative analysis, the groups were divided as follows: normal control, disease control, treatment groups with individual component, reference standard drug and test composition/formulation of the present invention. […] The animals under consideration were examined for a study period of 12 weeks. Animals in group (G1) were given normal pellet diet, wherein the other groups were on high fat diet. After completion of study for 12 weeks, each group was analyzed in terms of the body weight and other evaluating parameters such as serum biochemistry (triglyceride, total cholesterol and low density lipoprotein cholesterol (LDL), analysis of liver homogenates and histopathology of liver. Obesity is essentially due to an excessive accumulation of the fatty tissues which leads to many diseases, not limited to insulin resistance, diabetes, fatty liver disease, coronary artery disease, hypertension and polycystic ovary syndrome. In obese conditions, the level of total cholesterol, triglyceride and LDL-cholesterol reaches beyond the normal ranges in human beings. Similarly, high fat diet model in rat is universally accepted model to test the efficacy of the drug for the treatment of obesity. In the above experimental procedure, obesity was induced by administration of a high fat diet (HFD) for the period of 12 weeks. For comparison, the normal control group animals were given a normal pellet diet, whereas the remaining groups were fed with the HFD. As a routine experiment, all animals' body weights were observed on weekly basis. Further, various serum biochemistry parameters such as Triglyceride, total cholesterol and LDL-cholesterol were analyzed at the end of the 12-week treatment period. In this regard, at the end of study period, all animals were euthanized and the liver was isolated. The liver homogenate of each individual animal was prepared and subjected for determination of the level of total cholesterol and Triglyceride. Further, part of the liver was used for histopathological investigation purpose. The primary observation during the experiment was monitoring the body weight of animals. Though the animals were tested weekly for the change in the body weight, an average body weight was measured at the end of 12 weeks, and is tabulated in the Table 2.

[2] = test system: High fat diet induced obesity model in rat; assay: High fat diet induced obesity model in rat: serum biochemistry; settings: HFD-fed rats, 12 weeks, p.o.; for LDL / Total Cholesterol / Triglyceride: mean; for LDL % Decrease / Total Cholesterol % Decrease / Triglyceride % Decrease: versus disease control
Protocol: as §1, with “purpose.” for “purpose. The primary observation during the experiment was monitoring the body weight of animals. Though the animals were tested weekly for the change in the body weight, an average body weight was measured at the end of 12 weeks, and is tabulated in the Table 2.”

[3] = test system: High fat diet induced obesity model in rat; assay: High fat diet induced obesity model in rat: analysis of liver homogenates; settings: liver homogenate, HFD-fed rats, 12 weeks, p.o.; for Total Cholesterol / Triglyceride: mean; for Total Cholesterol % Decrease / Triglyceride % Decrease: versus disease control
Protocol: as §1, with “purpose.” for “purpose. The primary observation during the experiment was monitoring the body weight of animals. Though the animals were tested weekly for the change in the body weight, an average body weight was measured at the end of 12 weeks, and is tabulated in the Table 2.”

Structure (SMILES)	% increase in body weight [1]	Body weight [1]	LDL [2]	Total Cholesterol [2]	Triglyceride [2]	LDL % Decrease [2]	Total Cholesterol % Decrease [2]	Triglyceride % Decrease [2]	Total Cholesterol [3]	Triglyceride [3]	Total Cholesterol % Decrease [3]	Triglyceride % Decrease [3]
CC(C)[C@H](N)C(=O)O [L-Valine]	22.71%	338.67 gm	55.45 mg/dL	140.00 mg/dL	115.23 mg/dL	4.35%	4.92%	6.15%	85.23 mg/dL	80.02 mg/dL	5.56%	3.59%
CCCCCCCC/C=C\CCCCCCCC(=O)NCCO [OEA, Oleoylethanolamide]	12.32%	310.00 gm	35.54 mg/dL	105.54 mg/dL	100.05 mg/dL	38.70%	28.32%	18.51%	74.12 mg/dL	59.98 mg/dL	17.87%	27.74%
CCCCCCCCCCC[C@@H](C[C@@H]1OC(=O)[C@H]1CCCCCC)OC(=O)[C@H](CC(C)C)NC=O [Orlistat]	7.97%	298.00 gm	25.74 mg/dL	84.27 mg/dL	77.62 mg/dL	55.60%	42.77%	36.78%	60.33 mg/dL	44.82 mg/dL	33.15%	46.00%
